Source: patent US6541425B1, “Retarding formulations of active substances used for plant protection” (priority 1998, dated 2003)
In brackets after ≈: the same amount, converted by molar mass.

Assays:
[1] = Solubility in water of the active ingredients; assay type: physicochemical; conditions: for solubility: water

| Compound | melting point | solubility [1] | Solubility in water [1] |
| --- | --- | --- | --- |
| CNC(=O)/C(=N/OC)c1ccccc1CO/N=C(C)/C(=N/OC)OC(C)C [Compound 1, N-methyl-2-[2-(2-isopropoxy-2-(Z)-methoxyimino-1-methyl-(E)-ethylideneaminooxymethyl)phenyl]-2-(E)-methoxyiminoacetamide] | 57 °C | 1340 µg/mL (≈ 3.54 mM) |  |
| CCC(C)OC(=N\OC)/C(C)=N/OCc1ccccc1/C(=N\OC)C(=O)NC (centres unmarked) [Compound 2, N-methyl-2-[2-(2-sec-butoxy-2-(Z)-methoxyimino-1-methyl-(E)-ethylideneaminooxymethyl)phenyl]-2-(E)-methoxyiminoacetamide] | 48 to 50 °C | 1190 µg/mL (≈ 3.03 mM) |  |
| CNC(=O)/C(=N/OC)c1ccccc1CO/N=C(C)/C(=N/OC)OCC(C)C [Compound 3, N-methyl-2-[2-(2-isobutoxy-2-(Z)-methoxyimino-1-methyl-(E)-ethylideneaminooxymethyl)phenyl]-2-(E)-methoxyiminoacetamide] | 68 °C | 500 µg/mL (≈ 1.27 mM) |  |
| CNC(=O)/C(=N/OC)c1ccccc1CO/N=C(C)/C(=N/OC)C(/C)=N/OC [Compound 4, N-methylphenyl-2-((3,4-[E]-bis(methoximino), 2-[E]-oximinopentyl)methyl)-alpha-[E]-methoximinoacetamide] |  |  | 0.450 g/L (≈ 1.15 mM) |
| N-methylphenyl-2-((3-[E]-methoxyimino, 5-methyl, 2-[E]-oximino-hex-4-en-yl)methyl)-alpha-[E]-methoximinoacetamide [Compound 5] |  |  | 0.058 g/L |
